Assay results published in patent publication US7145010B2, “Tert-alkylphenoxy-substituted polycyclic compounds” (BASF Aktiengesellschaft, priority 2001, dated 2006).
Values after ≈ are worked out from the molar mass of the structure shown.

Key:
[1] = Solubility in extremely nonpolar to polar solvents
[2] = Homogeneous incorporation into aqueous polymer dispersions (Example 25 of WO-A-99/40123 repeated); assay type: physicochemical
Text: Example 25 of WO-A-99/40123 was repeated to prepare aqueous polymer dispersions containing 15% by weight of the fluorescent colorant of Example 2 or […] of the near infrared absorber of Example 6 in homogeneous dispersion. The corresponding phenoxy-substituted derivatives, by contrast, were only incorporable with homogeneous results up to a concentration of respectively 7 and 1% by weight.

Compound	Solubility in Isopropanol (50° C.) [1]	Solubility in Pentane (25° C.) [1]	Solubility in Toluene (25° C.) [1]	Concentration contained in homogeneous dispersion in aqueous polymer dispersion [2]
CC(C)c1cccc(C(C)C)c1N1C(=O)c2cc(Oc3ccc(C(C)(C)CC(C)(C)C)cc3)c3c4cccc5c(Oc6ccc(C(C)(C)CC(C)(C)C)cc6)ccc(c6c(Oc7ccc(C(C)(C)CC(C)(C)C)cc7)cc(c2c36)C1=O)c54 [Example 1]	56 mg/mL (≈ 51.2 mM)	53 mg/mL (≈ 48.4 mM)	>250 mg/mL	
CC(C)c1cccc(C(C)C)c1N1C(=O)c2ccc3c4c(Oc5ccc(C(C)(C)CC(C)(C)C)cc5)cc5c6c(ccc(c7c(Oc8ccc(C(C)(C)CC(C)(C)C)cc8)cc(c2c37)C1=O)c64)C(=O)N(c1c(C(C)C)cccc1C(C)C)C5=O [Example 4]	59 mg/mL (≈ 52.7 mM)	55 mg/mL (≈ 49.1 mM)	>250 mg/mL	
1:1 mixture of N,N′-bis(2,6-diisopropylphenyl)-1,6,8,11,16,18-hexa(p-tert-octylphenoxy)-quaterrylene-3,4:13,14-tetracarboxylic diimide and N,N′-bis(2,6-diisopropyl-phenyl)-1,6,8,11,16,19-hexa(p-tert-octylphenoxy)quaterrylene-3,4:13,14-tetracarboxylic diimide [Example 6]	49 mg/mL	55 mg/mL	>500 mg/mL	
CC(C)c1cccc(C(C)C)c1N1C(=O)c2cc(Oc3ccc(C(C)(C)CC(C)(C)C)cc3)c3c4c(Oc5ccc(C(C)(C)CC(C)(C)C)cc5)cc5c6c(cc(Oc7ccc(C(C)(C)CC(C)(C)C)cc7)c(c7c(Oc8ccc(C(C)(C)CC(C)(C)C)cc8)cc(c2c37)C1=O)c64)C(=O)N(c1c(C(C)C)cccc1C(C)C)C5=O [Example 2]	92 mg/mL (≈ 60.2 mM)	81 mg/mL (≈ 53 mM)	>400 mg/mL	15 % by weight
CC(C)c1cccc(C(C)C)c1N1C(=O)c2cc(Oc3ccc(C(C)(C)CC4CCCCC4)cc3)c3c4c(Oc5ccc(C(C)(C)CC6CCCCC6)cc5)cc5c6c(cc(Oc7ccc(C(C)(C)CC8CCCCC8)cc7)c(c7c(Oc8ccc(C(C)(C)CC9CCCCC9)cc8)cc(c2c37)C1=O)c64)C(=O)N(c1c(C(C)C)cccc1C(C)C)C5=O [Example 3]	87 mg/mL (≈ 53.3 mM)	65 mg/mL (≈ 39.8 mM)	>350 mg/mL	
CCCCCCCCCCCCN1C(=O)c2ccc3c4c(Oc5ccc(C(C)(C)CC(C)(C)C)cc5)cc5c6c(ccc(c7c(Oc8ccc(C(C)(C)CC(C)(C)C)cc8)cc(c2c37)C1=O)c64)C(=O)N(CCCCCCCCCCCC)C5=O [Example 5]	47 mg/mL (≈ 41.4 mM)	24 mg/mL (≈ 21.1 mM)	155 mg/mL (≈ 136 mM)	
